# Source: US20230035422A1, “METHODS FOR TREATING DISEASES BY TARGETING ONCOGENIC LIPIDS” (THE TRUSTEES OF COLUMBIA UNIVERSITY IN THE CITY OF NEW YORK, priority 2020, published 2023)
# Key:
# [1] = test system: SKBR3 cells overexpressing ADCK3-FLAG; test: Ferroptosis induction in SKBR3 cells overexpressing ADCK3-FLAG (CellTiter-Glo); format: cell-based; conditions: RSL3 10 or 20 nM, FIN56 78 or 156 nM, 48 h
# Experimental: Viability was measured with CellTiter-Glo®.
# ADCK3-FLAG was stably overexpressed in SKBR3 cells through retroviral infection. First, proper localization of the overexpressed protein to the mitochondria was validated by fluorescent microscopy. Similarly to the localization pattern of endogenous ADCK3 to the mitochondria, overexpressed ADCK3-FLAG co-localized with a MitoTracker fluorescent probe (FIG. 5A).
# [2] = test system: breast cancer cell lines (high-ADCK3 vs low-ADCK3); test: Breast cancer cell line panel viability with ferroptosis inducers (CellTiter-Glo); format: cell-based; conditions: 2-fold dilution series, 72 hours
# Experimental: Breast cancer cell lines were treated with ferroptosis inducers FIN56 (FIG. 2D) or RSL3 (FIG. 2E) in 2-fold dilution series for 72 hours. Cell viability was measured with CellTiter-Glo®. Ferroptosis-sensitive breast cancer cells are categorized as ‘high-ADCK3’ expressing (orange), while cells that are less sensitive to ferroptosis induction were the ones with ‘low-ADCK3’ (green).
# A panel of 10 breast cancer cell lines was selected form the Broad Institute Cancer Cell Line Encyclopedia database (CCLE; https://portals.broadinsitute.org/ccle),based on their ADCK3 copy number and mRNA expression levels, to have a good representation of ADCK3-amplified cells (termed here as ‘high-ADCK3’), as well as a control group expressing normal levels of ADCK3 (termed here as ‘low-ADCK3’; FIG. 2A). To confirm a correlation between high ADCK3 gene/transcript expression and protein expression, ADCK3 levels were measured by western blot (FIG. 2B). Cells were divided into high-ADCK3 (orange in FIGS. 2A-2E) and low-ADCK3 (green in FIGS. 2A-2E) according to the protein expression level. […] High ADCK3 protein levels correlated with high CoQ10 abundance, measured by LC-MS (FIG. 2C). […]
# [3] = test system: ADCK3 knockdown/knockout SKBR3 cells; test: Ferroptosis induction in ADCK3 knockdown/knockout SKBR3 cells (CellTiter-Glo); format: cell-based; conditions: for rescue of RSL3-induced death in siRNA ADCK3 knockdown cells: SKBR3, siRNA ADCK3, RSL3 48 h
# Experimental: At 48 h after transfection, cells were treated with RSL3 in 2-fold dilution series for 48 h, in combination with ferrostatin-1 or idebenone. Viability was measured with CellTiter-Glo®. […] Stable CRISPR cells were treated with FIN56 in 2-fold dilution series in combination with ferrostatin-1, for 48 h. Viability was measured with CellTiter-Glo®. […] (grey) cells were treated with RSL3 or FIN56 in 2-fold dilution series in combination with 2 μM ferrostatin-1 for 48 h. Viability was measured with CellTiter-Glo®.
# SKBR3 cells [4] = test: SKBR3 cell death / viability on SGC-GAK-1 treatment; format: cell-based
# Description: (§1) Thus, it was concluded that SGC-GAK-1 induces ferroptosis in ADCK3-amplified cells, perhaps by reducing the levels of ADCK3 and CoQ10.
# SKBR3 cells [5] = test: Cellular lipid-ROS by C11-BODIPY flow cytometry; format: cell-based
# Description: as §1
# ADCK3 [6] = test: Western blot of ADCK3 protein levels in SKBR3 cells; format: cell-based; conditions: SKBR3, 50 nM SGC-GAK-1, 48 hours
# Experimental: SKBR3 cells were treated with 50 nM SGC-GAK-1 or vehicle, for 48 h, and analyzed by western blot for ADCK3 and GAPDH levels.
# as §1
# ADCK3 [7] = target: ADCK3 (Homo sapiens, UniProt Q8NI60); conditions: reported, Asquith et al. 2019; cited from earlier work
# CoQ10 = CoQ10 abundance in SKBR3 cells by LC/MS; format: cell-based; conditions: SKBR3, 50 nM SGC-GAK-1, 48 hours
# Description: CoQ10 abundance in SKBR3 cells treated as in FIG. 6A, measured by LC/MS.
# as §1
# [8] = test system: triple-negative breast cancer; conditions: cited from earlier work
# Sequence of ADCK3 (Homo sapiens, UniProt Q8NI60) (Q8NI60 163-647): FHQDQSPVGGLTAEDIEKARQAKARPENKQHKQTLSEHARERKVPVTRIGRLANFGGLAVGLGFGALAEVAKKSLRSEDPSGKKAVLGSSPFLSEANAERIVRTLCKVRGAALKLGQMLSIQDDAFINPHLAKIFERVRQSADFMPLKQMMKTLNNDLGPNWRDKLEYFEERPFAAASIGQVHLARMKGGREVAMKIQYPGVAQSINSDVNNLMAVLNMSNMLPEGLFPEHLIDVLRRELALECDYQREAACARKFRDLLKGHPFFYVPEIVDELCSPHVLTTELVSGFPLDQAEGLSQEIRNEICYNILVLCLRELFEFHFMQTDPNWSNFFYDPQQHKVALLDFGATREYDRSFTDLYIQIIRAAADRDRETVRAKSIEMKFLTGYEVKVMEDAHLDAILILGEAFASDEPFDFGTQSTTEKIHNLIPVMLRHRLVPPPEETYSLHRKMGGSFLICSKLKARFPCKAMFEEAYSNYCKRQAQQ
compound,measurement,setting,value
O=S(=O)(NC1CCCCC1)c1ccc2c(c1)C(=NO)c1cc(S(=O)(=O)NC3CCCCC3)ccc1-2 [FIN56],cytotoxic effect in cells overexpressing ADCK3 compared to control,[1],statistically significant reduction in cytotoxic effect
same,sensitivity to ferroptosis induction of cells with amplified ADCK3 expression,[2],distinct higher sensitivity
COC(=O)c1ccc([C@@H]2c3[nH]c4ccccc4c3C[C@@H](C(=O)OC)N2C(=O)CCl)cc1 [RSL3],cytotoxic effect in cells overexpressing ADCK3 compared to control,[1],statistically significant reduction in cytotoxic effect
same,sensitivity to ferroptosis induction of cells with amplified ADCK3 expression,[2],distinct higher sensitivity
same,sensitivity of siRNA ADCK3 knockdown cells to ferroptosis inducer,"[3]; SKBR3, siRNA ADCK3 vs non-targeting control, 48 h treatment",increased the sensitivity
COc1cc(Nc2ccnc3ccc(Br)cc23)cc(OC)c1OC [SGC-GAK-1],sensitivity of SKBR3 cells to RSL3-mediated ferroptotic death,SKBR3 cells [4]; SGC-GAK-1 combined with RSL3,further potentiated SKBR3 cells to RSL3-mediated ferroptotic death
same,cell death induced by SGC-GAK-1 alone,"SKBR3 cells [4]; SKBR3 cells, with or without ferrostatin-1",induced cell death that was rescued by the ferroptosis inhibitor ferrostatin-1
same,lipid-ROS,"SKBR3 cells [5]; SKBR3, 50 nM SGC-GAK-1, 48 h, C11-BODIPY",increase in lipid-ROS
same,ADCK3 protein levels,ADCK3 [6],marked reduction in ADCK3 protein levels
same,inhibitory activity against ADCK3,ADCK3 [7],nanomolar inhibitory activity
same,CoQ10 levels,CoQ10,reduced CoQ10 levels
CCOC(=O)c1ccc(NC2CCCCC2)c(N)c1 [ferrostatin-1],rescue of SGC-GAK-1-induced ferroptotic death,"SKBR3 cells [4]; SKBR3, 1 µM ferrostatin-1",rescued
same,rescue of SGC-GAK-1-induced increase in cellular lipid-ROS,"SKBR3 cells [5]; SKBR3, 2 µM ferrostatin-1",rescued
same,rescue of death and sensitization in CRISPR/shRNA ADCK3 knockout cells,"[3]; SKBR3, RSL3 or FIN56 with ferrostatin-1 (2 µM in shRNA cells)",rescued
same,rescue of RSL3-induced death in siRNA ADCK3 knockdown cells,[3],rescued
COC1=C(OC)C(=O)C(CCCCCCCCCCO)=C(C)C1=O [idebenone],rescue of RSL3-induced death in siRNA ADCK3 knockdown cells,[3],rescued
Tecentriq: approved in combination with protein-bound paclitaxel for unresectable triple-negative breast cancer whose tumors express PD-L1,patients who experienced adverse reactions,[8]; in vivo,greater than 20%
same,median progression-free survival,"[8]; with protein-bound paclitaxel, PD-L1 expressing unresectable triple-negative breast cancer",7.4 months
same,extension of median progression-free survival,"[8]; with protein-bound paclitaxel, from 4.8 to 7.4",2.6 months
